In experiment [1] the target is T1, Bromodomain-containing protein 4 [44-168] (Human, UniProt O60885).
T1 construct: 44-168
Description: BROMOscan Assay.

Experiment [2] has as its target T2, Bromodomain-containing protein 4 [44-168,333-460] (Homo sapiens, UniProt O60885).
T2 construct: 44-168,333-460
Briefly: BROMOscan Assay.

Experiment [3] deals with T3, Bromodomain testis-specific protein [21-137] (Homo sapiens, UniProt Q58F21).
T3 construct: 21-137
Briefly: AlphaScreen BRD Binding Assay. The settings on record: pH 7.5; 25 °C.

Experiment [4] has as its target T1, Bromodomain-containing protein 4 [44-168]. Description: AlphaScreen BRD Binding Assay. The settings on record: pH 7.5; 25 °C. In general terms: Bead proximity is the source of the signal in Alpha formats.
Experiment [5] has as its target T4, Bromodomain-containing protein 2 [71-194,348-455] (Homo sapiens, UniProt P25440).
T4 construct: 71-194,348-455
Description: Bromodomains Assay for DiscoveRx Gene Symbol.

Experiment [6] addresses T5, Bromodomain-containing protein 3 [306-416] (Homo sapiens, UniProt Q15059).
T5 construct: 306-416
Description: Bromodomains Assay for DiscoveRx Gene Symbol.

Experiment [7] addresses T6, Bromodomain testis-specific protein [21-137,251-382] (Homo sapiens, UniProt Q58F21).
T6 construct: 21-137,251-382
Description: BROMOscan Assay.

For experiment [8], the target named is T7, Bromodomain-containing protein 3 [24-144] (Homo sapiens, UniProt Q15059).
T7 construct: 24-144
T7 sequence (Q15059 24-144): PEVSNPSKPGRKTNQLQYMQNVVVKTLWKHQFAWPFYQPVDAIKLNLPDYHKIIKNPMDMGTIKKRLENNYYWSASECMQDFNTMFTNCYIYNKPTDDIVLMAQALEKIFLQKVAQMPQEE
Briefly: Bromodomains Assay for DiscoveRx Gene Symbol.

Experiment [9] addresses T8, Bromodomain testis-specific protein [251-382] (Homo sapiens, UniProt Q58F21).
T8 construct: 251-382
Briefly: Bromodomains Assay for DiscoveRx Gene Symbol.

The target in experiment [10] is T3, Bromodomain testis-specific protein [21-137]. Briefly: Bromodomains Assay for DiscoveRx Gene Symbol.
In experiment [11] the target is T9, Bromodomain-containing protein 3 [24-144,306-416] (Homo sapiens, UniProt Q15059).
T9 construct: 24-144,306-416
T9 sequence (Q15059 as listed by the source): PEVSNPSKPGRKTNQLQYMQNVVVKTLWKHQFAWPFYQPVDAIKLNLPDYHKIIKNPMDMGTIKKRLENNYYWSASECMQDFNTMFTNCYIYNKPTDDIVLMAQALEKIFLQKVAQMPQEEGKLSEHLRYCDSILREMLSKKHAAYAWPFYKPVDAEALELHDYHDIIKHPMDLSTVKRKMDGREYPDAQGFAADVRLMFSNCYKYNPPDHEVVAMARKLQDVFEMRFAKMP
Briefly: Bromodomains Assay for DiscoveRx Gene Symbol.

In experiment [12] the target is T6, Bromodomain testis-specific protein [21-137,251-382]. Description: Bromodomains Assay for DiscoveRx Gene Symbol.

A word on the Kd: it is the free concentration of one partner at which half of the binding sites on the other are occupied at equilibrium, for simple one-to-one binding. High values mean a looser complex, low ones a tighter complex. Usually IC50 stands for the concentration that gives 50% inhibition. Read a low IC50 as greater potency in that assay. Usually Ki stands for a dissociation constant, usually derived from enzyme kinetics or from competition with a known ligand. A high value points to weaker binding.

T5 sequence (Q15059 306-416): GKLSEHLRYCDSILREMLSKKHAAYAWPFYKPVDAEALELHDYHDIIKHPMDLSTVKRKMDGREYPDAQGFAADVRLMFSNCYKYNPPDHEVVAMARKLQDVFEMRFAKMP
T4 sequence (P25440 as listed by the source): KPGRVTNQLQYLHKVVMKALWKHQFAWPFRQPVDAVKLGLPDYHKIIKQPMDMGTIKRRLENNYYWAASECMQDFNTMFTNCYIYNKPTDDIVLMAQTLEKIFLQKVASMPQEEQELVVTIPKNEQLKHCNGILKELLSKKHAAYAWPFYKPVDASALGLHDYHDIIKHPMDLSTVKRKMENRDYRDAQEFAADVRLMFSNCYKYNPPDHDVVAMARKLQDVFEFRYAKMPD

As for `COC(=O)C[C@@H]1N=C(c2ccc(Cl)cc2)c2c(sc(C(=O)NCCNC(=O)C[C@@H]3N=C(c4ccc(Cl)cc4)c4c(sc(C)c4C)-n4c(C)nnc43)c2C)-n2c(C)nnc21` [(6S+2S)-PEG0 (6)], the Kd came to 0.034 nM in experiment [1] and 0.047 nM in experiment [2]. Moreover, the IC50 in experiment [3] is 2.36 nM; in [4], 3.58 nM.

For the compound `COC(=O)C[C@@H]1N=C(c2ccc(Cl)cc2)c2c(sc(C(=O)NCCOCCOCCNC(=O)C[C@@H]3N=C(c4ccc(Cl)cc4)c4c(sc(C)c4C)-n4c(C)nnc43)c2C)-n2c(C)nnc21` [(6S+2S)-PEG2 (8)], the Kd in [1] was determined as 0.014 nM; in [2] it was 0.0091 nM. For the same compound, the IC50 in experiment [3] turned out to be 1.84 nM; in [4], 1.28 nM.

`COC(=O)C[C@@H]1N=C(c2ccc(Cl)cc2)c2c(sc(C(=O)NCCOCCNC(=O)c3sc4c(c3C)C(c3ccc(Cl)cc3)=N[C@H](CC(=O)OC)c3nnc(C)n3-4)c2C)-n2c(C)nnc21` [(2S+2S)-PEG1 (5)]: the IC50 in experiment [4] was determined as 1.17 nM.

In the case of `COC(=O)CC1N=C(c2ccc(Cl)cc2)c2c(sc(C(=O)NCCOCCOCCOCCNC(=O)Cn3c(=O)n([C@H](C)c4ccccn4)c4c5cc(OC)c(-c6c(C)noc6C)cc5ncc43)c2C)-n2c(C)nnc21` (stereo partly drawn) [2S+IBET-PEG3 (26)], the IC50 in [3] was determined as 31.7 nM; in [4], 11.3 nM.

Turning to `COC(=O)C[C@@H]1N=C(c2ccc(Cl)cc2)c2c(sc(C(=O)NCCOCCOCCOCCOCCOCCOCCOCCNC(=O)C[C@@H]3N=C(c4ccc(Cl)cc4)c4c(sc(C)c4C)-n4c(C)nnc43)c2C)-n2c(C)nnc21` [(6S+2S)-PEG7 (11)], the Kd was found to be 0.026 nM in experiment [1] and 0.0059 nM in experiment [2]. The results for the IC50 in experiment [3] and in [4] were 1.59 nM and 0.789 nM, respectively.

Regarding `COc1cc2c(cc1-c1c(C)noc1C)ncc1c2n([C@H](C)c2ccccn2)c(=O)n1CC(=O)NCCOCCNC(=O)C[C@@H]1N=C(c2ccc(Cl)cc2)c2c(sc(C)c2C)-n2c(C)nnc21` [6S+IBET-PEG1 (18)], the IC50 in [3] came to 12.1 nM; in experiment [4], 54 nM.

For the compound `COc1cc2c(cc1-c1c(C)noc1C)ncc1c2n([C@H](C)c2ccccn2)c(=O)n1CC(=O)NCCOCCOCCOCCNC(=O)Cn1c(=O)n([C@@H](C)c2ccccn2)c2c3cc(OC)c(-c4c(C)noc4C)cc3ncc21` [IBETx2-PEG3 (32)], the 50% inhibitory concentration (IC50) in [3] came to 64.6 nM; in [4] it was 53.4 nM.

With `COC(=O)CC1N=C(c2ccc(Cl)cc2)c2c(sc(C(=O)NCCOCCOCCNC(=O)Cn3c(=O)n([C@H](C)c4ccccn4)c4c5cc(OC)c(-c6c(C)noc6C)cc5ncc43)c2C)-n2c(C)nnc21` (stereo partly drawn) [2S+IBET-PEG2 (25)], the IC50 in experiment [3] came to 23.2 nM; in experiment [4] it was 5.8 nM.

For the compound `COc1cc2c(cc1-c1c(C)noc1C)ncc1c2n([C@H](C)c2ccccn2)c(=O)n1CC(=O)NCCOCCOCCOCCOCCNC(=O)C[C@@H]1N=C(c2ccc(Cl)cc2)c2c(sc(C)c2C)-n2c(C)nnc21` [6S+IBET-PEG4 (21)], the IC50 in experiment [3] was 6.2 nM; in [4], 29.5 nM.

In the case of `COc1cc2c(cc1-c1c(C)noc1C)ncc1c2n([C@H](C)c2ccccn2)c(=O)n1CC(=O)NCCOCCOCCOCCNC(=O)C[C@@H]1N=C(c2ccc(Cl)cc2)c2c(sc(C)c2C)-n2c(C)nnc21` [6S+IBET-PEG3 (20)], the results for the IC50 in experiment [3] and in [4] were 5.78 nM and 27.4 nM, respectively.

For the compound `COC(=O)CC1N=C(c2ccc(Cl)cc2)c2c(sc(C(=O)NCCOCCOCCOCCOCCOCCOCCOCCNC(=O)Cn3c(=O)n([C@H](C)c4ccccn4)c4c5cc(OC)c(-c6c(C)noc6C)cc5ncc43)c2C)-n2c(C)nnc21` (stereo partly drawn) [2S+IBET-PEG7 (28)], the figures for the 50% inhibitory concentration (IC50) in experiment [3] and in experiment [4] were 13.2 nM and 17.4 nM, respectively.

Consider `COC(=O)CC1N=C(c2ccc(Cl)cc2)c2c(sc(C(=O)NCCNC(=O)Cn3c(=O)n([C@H](C)c4ccccn4)c4c5cc(OC)c(-c6c(C)noc6C)cc5ncc43)c2C)-n2c(C)nnc21` (stereo partly drawn) [2S+IBET-PEG0 (23)], for which the IC50 turned out to be 596 nM in experiment [3] and 439 nM in [4].

In the case of `COc1cc2c(cc1-c1c(C)noc1C)ncc1c2n([C@H](C)c2ccccn2)c(=O)n1CC(=O)NCCOCCNC(=O)Cn1c(=O)n([C@@H](C)c2ccccn2)c2c3cc(OC)c(-c4c(C)noc4C)cc3ncc21` [IBETx2-PEG1 (30)], the values for the concentration for half-maximal inhibition (IC50) in [3] and in [4] were 203 nM and 108 nM, respectively.

On to `COc1cc2c(cc1-c1c(C)noc1C)ncc1c2n([C@H](C)c2ccccn2)c(=O)n1CC(=O)NCCOCCOCCNC(=O)Cn1c(=O)n([C@@H](C)c2ccccn2)c2c3cc(OC)c(-c4c(C)noc4C)cc3ncc21` [IBETx2-PEG2 (31)], for which the IC50 in [3] was 123 nM; in experiment [4], 117 nM.

For the compound `COc1cc2c(cc1-c1c(C)noc1C)ncc1c2n([C@H](C)c2ccccn2)c(=O)n1CC(=O)NCCOCCOCCOCCOCCNC(=O)Cn1c(=O)n([C@@H](C)c2ccccn2)c2c3cc(OC)c(-c4c(C)noc4C)cc3ncc21` [IBETx2-PEG4 (33)], the IC50 stood at 60.2 nM in experiment [3] and 73.7 nM in experiment [4].

On to `COc1cc2c(cc1-c1c(C)noc1C)ncc1c2n([C@H](C)c2ccccn2)c(=O)n1CC(=O)NCCOCCOCCOCCOCCOCCOCCOCCNC(=O)Cn1c(=O)n([C@@H](C)c2ccccn2)c2c3cc(OC)c(-c4c(C)noc4C)cc3ncc21` [IBETx2-PEG7 (34)], for which the IC50 in experiment [3] is 13.6 nM; in experiment [4] it was 30.5 nM.

Take `COc1cc2c(cc1-c1c(C)noc1C)ncc1c2n([C@H](C)c2ccccn2)c(=O)n1CC(=O)NCCNC(=O)Cn1c(=O)n([C@@H](C)c2ccccn2)c2c3cc(OC)c(-c4c(C)noc4C)cc3ncc21` [IBETx2-PEG0 (29)]: the values for the concentration for half-maximal inhibition (IC50) in [3] and in experiment [4] were 203 nM and 209 nM, respectively.

`Cc1sc2c(c1C)C(c1ccc(Cl)cc1)=NC(CC(=O)NCCOCCOCCOCCOCCOCCOCCOCCNC(=O)C[C@@H]1N=C(c3ccc(Cl)cc3)c3c(sc(C)c3C)-n3c(C)nnc31)c1nnc(C)n1-2` (stereo partly drawn) [MTI (35)]: the Ki in experiment [5] came to 0.024 nM; in experiment [6], 0.07 nM.

Turning to `COC(=O)CC1N=C(c2ccc(Cl)cc2)c2c(sc(C(=O)NCCOCCNC(=O)Cn3c(=O)n([C@H](C)c4ccccn4)c4c5cc(OC)c(-c6c(C)noc6C)cc5ncc43)c2C)-n2c(C)nnc21` (stereo partly drawn) [2S+IBET-PEG1 (24)], the IC50 in [3] came out at 40.3 nM; in experiment [4], 18.1 nM.

In the case of `COc1cc2c(cc1-c1c(C)noc1C)ncc1c2n([C@H](C)c2ccccn2)c(=O)n1CC(=O)NCCNC(=O)C[C@@H]1N=C(c2ccc(Cl)cc2)c2c(sc(C)c2C)-n2c(C)nnc21` [6S+IBET-PEG0 (17)], the concentration for half-maximal inhibition (IC50) in [3] worked out at 148 nM; in experiment [4] it was 404 nM.

Take `COC(=O)CC1N=C(c2ccc(Cl)cc2)c2c(sc(C(=O)NCCOCCOCCOCCOCCNC(=O)Cn3c(=O)n([C@H](C)c4ccccn4)c4c5cc(OC)c(-c6c(C)noc6C)cc5ncc43)c2C)-n2c(C)nnc21` (stereo partly drawn) [2S+IBET-PEG4 (27)]: the IC50 in [3] was 21.7 nM; in experiment [4], 10.3 nM.

Turning to `COc1cc2c(cc1-c1c(C)noc1C)ncc1c2n([C@H](C)c2ccccn2)c(=O)n1CC(=O)NCCOCCOCCOCCOCCOCCOCCOCCNC(=O)C[C@@H]1N=C(c2ccc(Cl)cc2)c2c(sc(C)c2C)-n2c(C)nnc21` [6S+IBET-PEG7 (22)], the figures for the half-maximal inhibitory concentration (IC50) in [3] and in [4] were 6.1 nM and 11.5 nM, respectively.

As to `COc1cc2c(cc1-c1c(C)noc1C)ncc1c2n([C@H](C)c2ccccn2)c(=O)n1CC(=O)NCCOCCOCCNC(=O)C[C@@H]1N=C(c2ccc(Cl)cc2)c2c(sc(C)c2C)-n2c(C)nnc21` [6S+IBET-PEG2 (19)], the Kd in [1] came out at 0.062 nM. Further, the IC50 in [3] came out at 10 nM; in experiment [4], 58.6 nM.

Regarding `COC(=O)C[C@@H]1N=C(c2ccc(Cl)cc2)c2c(sc(C(=O)NCCOCCNC(=O)C[C@@H]3N=C(c4ccc(Cl)cc4)c4c(sc(C)c4C)-n4c(C)nnc43)c2C)-n2c(C)nnc21` [(6S+2S)-PEG1 (7)], the Kd turned out to be 0.039 nM in experiment [7] and 0.066 nM in experiment [9]. Moreover, the Ki is 0.13 nM in [8]; 0.29 nM in experiment [10]; 0.0027 nM in experiment [6]; 0.11 nM in experiment [11]; 0.42 nM in experiment [12]. The compound further registered an IC50 in [3] of 0.574 nM.

For `COC(=O)C[C@@H]1N=C(c2ccc(Cl)cc2)c2c(sc(C(=O)NCCOCCOCCOCCOCCNC(=O)C[C@@H]3N=C(c4ccc(Cl)cc4)c4c(sc(C)c4C)-n4c(C)nnc43)c2C)-n2c(C)nnc21` [(6S+2S)-PEG4 (10)], the Kd in experiment [1] came out at 0.023 nM; in experiment [2], 0.0066 nM. Besides, the IC50 stood at 1.09 nM in [3] and 2.95 nM in [4].

On to `COC(=O)C[C@@H]1N=C(c2ccc(Cl)cc2)c2c(sc(C(=O)NCCOCCOCCOCCNC(=O)C[C@@H]3N=C(c4ccc(Cl)cc4)c4c(sc(C)c4C)-n4c(C)nnc43)c2C)-n2c(C)nnc21` [(6S+2S)-PEG3 (9)], for which the values for the Kd in experiment [1] and in experiment [2] were 0.029 nM and 0.0075 nM, respectively. Further, the 50% inhibitory concentration (IC50) in experiment [3] was 0.878 nM; in experiment [4], 2.25 nM.

For the origin of these results see BindingDB's records for doi:10.1038/nchembio.2209 (Dana-Farber Cancer Institute, 2016).
